Assay [1] addresses T1, CgNce103 (Nakaseomyces glabratus, UniProt Q6FTL6).
T1 construct: gene NCE103; recombinant, obtained in-house as previously reported; beta-class zinc enzyme
T1 sequence (Q6FTL6 1-219): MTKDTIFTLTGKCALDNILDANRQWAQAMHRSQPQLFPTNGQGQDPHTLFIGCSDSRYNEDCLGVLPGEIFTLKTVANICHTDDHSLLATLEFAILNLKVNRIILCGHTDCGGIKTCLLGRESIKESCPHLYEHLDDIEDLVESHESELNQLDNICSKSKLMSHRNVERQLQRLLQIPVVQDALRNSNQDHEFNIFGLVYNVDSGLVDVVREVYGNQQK
The assay can be described thus: stopped-flow CO2 hydrase assay. The class given is biochemical.

Assay [2] concerns the target T2, hCA I (Homo sapiens, UniProt P00915).
T2 construct: gene CA1; recombinant, obtained in-house as previously reported
The assay can be described thus: stopped-flow CO2 hydrase assay. Type of assay: biochemical. From the text: stopped-flow CO2 hydrase assay on hCA I

Assay [3] can be described thus: stopped-flow CO2 hydrase assay. The settings on record: read-out: hCA I. Type of assay: biochemical, Homo sapiens.
In assay [4] the test system is T3, C. albicans 5 strains.
T3 construct: 5 clinical isolates
The assay is described as follows: microbe, parasite or virus in culture. The settings on record: Candida albicans, 24 h, read-out: Tested Fungi (MIC Values μg/mL) / C. albicans 5 strains. On the set-up: species or system clinical Candida isolates; broth microdilution antifungal MIC, visual growth inhibition, CLSI. As to the method: (§1) The in vitro antifungal activities were determined by the broth microdilution method with sabouraud dextrose broth (BBL Microbiology Systems, Cockeysville, MD, USA), as recommended by the by the CLSI [43]. Ninety-six-well polystyrene microtitre plates containing serial dilutions of each compound were inoculated with each microorganism to yield the appropriate density (1–5 × 10^3 cells/mL) in a 100-μL final volume. Each plate included (i) fungi without the addition of the compound, (ii) just the medium, and (iii) just the compound. Topical and systemic antifungal reference drugs, clotrimazole and fluconazole, were inserted in the experiment. The plates were incubated for 24 h at 35 °C. […] Three independent experiments were performed in triplicate. The antimicrobial activity of these thiazolidinones was evaluated versus 24 clinical Gram-positive (S. aureus and S. epidermidis) and Gram-negative (E. coli and Enterobacter spp.) microorganisms. The antifungal activity of these derivatives was then tested versus 16 clinical fungal isolates belonging to the most relevant Candida spp. (C. albicans, C. tropicalis, C. parapsilosis, C. sakè, and C. glabrata). Prior to testing, each isolate was cultured on a selective medium to ensure purity and optimal growth, as previously reported. The isolates were routinely identified by the morphological aspects of colonies and by biochemical identification. The used clinical isolates were collected from specimens of patients at the ‘Azienda Policlinico Umberto I’ (Sapienza University of Rome) and were obtained from hematology/oncology and surgery departments, which also included an intensive care unit. In particular, the samples were isolated from the upper and lower respiratory tract, blood, and indwelling venous catheters; the isolates were identified by conventional methodologies. Participating subjects gave their written informed consent for this study.

Assay [5] has as its system T4, C. glabrata 3 strains.
T4 construct: 3 clinical isolates
The assay is described as follows: microbe, parasite or virus in culture. On the set-up: species or system clinical Candida isolates; broth microdilution antifungal MIC, visual growth inhibition, CLSI. The settings on record: Nakaseomyces glabratus, 24 h, read-out: Tested Fungi (MIC Values μg/mL) / C. glabrata 3 strains. On the procedure: as §1

In assay [6] the test system is T5, C. tropicalis 3 strains.
T5 construct: 3 clinical isolates
The assay can be described thus: microbe, parasite or virus in culture. On the set-up: species or system clinical Candida isolates; broth microdilution antifungal MIC, visual growth inhibition, CLSI. Conditions: Candida tropicalis, 24 h, read-out: Tested Fungi (MIC Values μg/mL) / C. tropicalis 3 strains. On the procedure: as §1

The subject of assay [7] is T6, Candida sake C. sakè 3 strains.
T6 construct: 3 clinical isolates
The assay can be described thus: microbe, parasite or virus in culture. On the set-up: species or system clinical Candida isolates; broth microdilution antifungal MIC, visual growth inhibition, CLSI. The settings on record: Fermentozyma sake, 24 h; read-out: Tested Fungi (MIC Values μg/mL) / C. sakè 3 strains. On the procedure:
as §1

Assay [8] has as its system T7, C. parapsilosis 2 strains.
T7 construct: 2 clinical isolates
The assay can be described thus: microbe, parasite or virus in culture. Further details: species or system clinical Candida isolates; CLSI broth microdilution MIC, Sabouraud dextrose broth, 35 °C, visual complete growth inhibition. The settings on record: Lodderomyces parapsilosis, 24 h, read-out: Tested Fungi (MIC Values μg/mL) / C. parapsilosis 2 strains. As to the method:
as §1

Assay [9] relates to T5, C. tropicalis 3 strains. The assay is described as follows: microbe, parasite or virus in culture. Conditions: Candida tropicalis, 24 h, read-out: Tested Fungi (MIC Values μg/mL) / C. tropicalis 3 strains. Further details: species or system clinical Candida isolates; CLSI broth microdilution MIC, Sabouraud dextrose broth, 35 °C, visual complete growth inhibition. As to the method: as §1

Each structure is given as a SMILES string. ≈ marks a conversion by molar mass, not a printed value. Read-outs that look alike come from different tables or passages of the source.

T2 sequence (P00915 2-261): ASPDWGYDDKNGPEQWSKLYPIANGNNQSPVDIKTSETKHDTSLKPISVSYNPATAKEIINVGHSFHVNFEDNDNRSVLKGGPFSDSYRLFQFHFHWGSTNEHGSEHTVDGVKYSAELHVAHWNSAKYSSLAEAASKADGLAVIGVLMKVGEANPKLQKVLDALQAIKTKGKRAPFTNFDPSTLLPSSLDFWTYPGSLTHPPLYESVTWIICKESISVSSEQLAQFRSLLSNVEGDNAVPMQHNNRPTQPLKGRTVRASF

Consider `CC1S/C(=N\NC(=O)C(O)c2ccccc2)N(c2cccc(F)c2)C1=O` (stereo not drawn) [4a], for which the Ki is 0.11 µM in assay [1], over 100 µM in assay [2] and over 100 µM in [3]. For the same compound, the MIC in assay [4] is 16 to 32 µg/mL (≈ 42.8 to 85.7 µM); in [5], 8 to 32 µg/mL (≈ 21.4 to 85.7 µM); in [6] it was 8 to 32 µg/mL (≈ 21.4 to 85.7 µM); in assay [7], 4 to 8 µg/mL (≈ 10.7 to 21.4 µM); in assay [8], 8 µg/mL (≈ 21.4 µM).
On to `Cc1cccc(N2C(=O)C(C)S/C2=N\NC(=O)C(O)c2ccccc2)c1` (stereo not drawn) [4g], for which the Ki was 0.5 µM in assay [1], over 100 µM in assay [2] and over 100 µM in [3]. The MIC is 4 to 16 µg/mL (≈ 10.8 to 43.3 µM) in assay [4]; 4 to 8 µg/mL (≈ 10.8 to 21.7 µM) in assay [5]; 4 to 8 µg/mL (≈ 10.8 to 21.7 µM) in assay [6]; 4 to 8 µg/mL (≈ 10.8 to 21.7 µM) in assay [7]; 32 µg/mL (≈ 86.6 µM) in assay [8].
As to `CC1S/C(=N\NC(=O)C(O)c2ccccc2)N(c2ccc(Cl)cc2)C1=O` (stereo not drawn) [4d], the MIC in assay [4] is 4 to 16 µg/mL (≈ 10.3 to 41 µM); in [5], 8 to 32 µg/mL (≈ 20.5 to 82.1 µM); in assay [6] it was 8 to 32 µg/mL (≈ 20.5 to 82.1 µM); in assay [7], 4 to 8 µg/mL (≈ 10.3 to 20.5 µM); in assay [8], 8 µg/mL (≈ 20.5 µM).
Regarding `CC1S/C(=N\NC(=O)C(O)c2ccccc2)N(c2cccc(C(F)(F)F)c2)C1=O` (stereo not drawn) [4k], the Ki in assay [1] is 0.11 µM; in assay [2] it was over 100 µM; in [3] it was over 100 µM. In addition, the MIC in assay [4] was 32 to 128 µg/mL (≈ 75.6 to 302 µM); in assay [5], 8 to 32 µg/mL (≈ 18.9 to 75.6 µM); in assay [7] it was 8 to 32 µg/mL (≈ 18.9 to 75.6 µM); in [8] it was 64 µg/mL (≈ 151 µM); in [9] it was 128 µg/mL (≈ 302 µM).
For the compound `COc1ccc(N2C(=O)C(C)S/C2=N\NC(=O)C(O)c2ccccc2)cc1` (stereo not drawn) [4i], the Ki was 0.69 µM in assay [1], over 100 µM in assay [2] and over 100 µM in assay [3]. The MIC in assay [4] was 8 to 32 µg/mL (≈ 20.8 to 83 µM); in assay [5] it was 8 to 32 µg/mL (≈ 20.8 to 83 µM); in assay [7] it was 8 to 32 µg/mL (≈ 20.8 to 83 µM); in assay [8], 32 µg/mL (≈ 83 µM); in assay [9], 16 µg/mL (≈ 41.5 µM).
For the compound `O=C(N/N=C1\SCC(=O)N1c1ccccc1Cl)C(O)c1ccccc1` (stereo not drawn) [3d], the Ki was 0.32 µM in assay [1], over 100 µM in [2] and over 100 µM in assay [3]. For the same compound, the MIC in assay [4] was 8 to 32 µg/mL (≈ 21.3 to 85.1 µM); in assay [5], 8 to 32 µg/mL (≈ 21.3 to 85.1 µM); in assay [7] it was 8 to 32 µg/mL (≈ 21.3 to 85.1 µM); in [8], 32 µg/mL (≈ 85.1 µM); in assay [9] it was 32 µg/mL (≈ 85.1 µM).
As for `O=C(N/N=C1\SCC(=O)N1c1ccc([N+](=O)[O-])cc1)C(O)c1ccccc1` (stereo not drawn) [3n], the MIC is 8 to 32 µg/mL (≈ 20.7 to 82.8 µM) in assay [4]; 8 to 32 µg/mL (≈ 20.7 to 82.8 µM) in assay [5]; 8 to 32 µg/mL (≈ 20.7 to 82.8 µM) in assay [7]; 32 µg/mL (≈ 82.8 µM) in assay [8]; 32 µg/mL (≈ 82.8 µM) in assay [9].
On to `COc1ccc(N2C(=O)CS/C2=N\NC(=O)C(O)c2ccccc2)cc1` (stereo not drawn) [3m], for which the Ki is 0.39 µM in [1], over 100 µM in assay [2] and over 100 µM in assay [3]. The MIC in assay [4] is 8 to 32 µg/mL (≈ 21.5 to 86.2 µM); in assay [5], 8 to 32 µg/mL (≈ 21.5 to 86.2 µM); in [7] it was 8 to 32 µg/mL (≈ 21.5 to 86.2 µM); in assay [8], 32 µg/mL (≈ 86.2 µM); in [9], 32 µg/mL (≈ 86.2 µM).
In the case of `Cc1ccccc1N1C(=O)CS/C1=N\NC(=O)C(O)c1ccccc1` (stereo not drawn) [3j], the MIC in assay [4] is 8 to 16 µg/mL (≈ 22.5 to 45 µM); in [5], 8 to 32 µg/mL (≈ 22.5 to 90 µM); in [7], 8 to 32 µg/mL (≈ 22.5 to 90 µM); in [8], 16 µg/mL (≈ 45 µM); in assay [9] it was 32 µg/mL (≈ 90 µM).
In the case of `Cc1ccc(N2C(=O)CS/C2=N\NC(=O)C(O)c2ccccc2)cc1` (stereo not drawn) [3l], the Ki in assay [1] was 6.3 µM; in assay [2], over 100 µM; in [3], over 100 µM. Moreover, the MIC was 8 to 32 µg/mL (≈ 22.5 to 90 µM) in assay [4]; 8 to 32 µg/mL (≈ 22.5 to 90 µM) in assay [5]; 8 to 32 µg/mL (≈ 22.5 to 90 µM) in assay [7]; 32 µg/mL (≈ 90 µM) in assay [8]; 32 µg/mL (≈ 90 µM) in assay [9].
As to `Cc1ccc(N2C(=O)C(C)S/C2=N\NC(=O)C(O)c2ccccc2)cc1` (stereo not drawn) [4h], the Ki in assay [1] was 0.09 µM; in assay [2], over 100 µM; in [3] it was over 100 µM. Also, the MIC in assay [4] was 8 to 32 µg/mL (≈ 21.7 to 86.6 µM); in [5] it was 8 to 32 µg/mL (≈ 21.7 to 86.6 µM); in assay [7], 8 to 32 µg/mL (≈ 21.7 to 86.6 µM); in assay [8], 32 µg/mL (≈ 86.6 µM); in [9], 16 µg/mL (≈ 43.3 µM).
`CC1S/C(=N\NC(=O)C(O)c2ccccc2)N(c2ccc([N+](=O)[O-])cc2)C1=O` (stereo not drawn) [4j]: the MIC in [4] was 8 to 32 µg/mL (≈ 20 to 79.9 µM); in [5], 8 to 32 µg/mL (≈ 20 to 79.9 µM); in assay [7] it was 8 to 32 µg/mL (≈ 20 to 79.9 µM); in [8], 32 µg/mL (≈ 79.9 µM); in assay [9], 16 µg/mL (≈ 40 µM).
